Drawing on PubChem BioAssay (NCI), this text covers TGI and GI50 for eleven molecules.

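A five-concentration, 48-hour dose response in 96-well plates underlies each endpoint, interpolated linearly between surrounding concentrations. GI50: concentration for 50% inhibition of growth. TGI: concentration producing complete growth inhibition.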

Common to all, as to assay: NCI anticancer screen, dose series, 48 h
The subject of assay [1] is NCI-H23 lung.
The subject of assay [2] is KM20L2 colon.
Assay [3] deals with SK-OV-3 ovarian.
Assay [4] deals with A498 renal.
The subject of assay [5] is A549 NSCLC.
Assay [6] concerns HOP-92 NSCLC.
In assay [7] the test system is MOLT-4 leukemia.
For assay [8], the system named is UO-31 renal.
In assay [9] the test system is SNB-19 CNS.
The subject of assay [10] is OVCAR-3 ovarian.
Assay [11] has as its system HT29 colon.
Assay [12] concerns XF 498 CNS.
In assay [13] the test system is SN12C renal.

With `CCN(CC)CCCOC(=O)/C=C/c1c(C)[nH]c(=O)[nH]c1=O`, the TGI in assay [1] is > 625 µM; in assay [2], > 625 µM; in assay [3], > 625 µM; in [4], > 412 µM; in [5], > 625 µM; in [6], > 625 µM. Moreover, the TGI in [7] is > 625 µM; in [8], > 625 µM; in [9], > 625 µM; in assay [10], > 625 µM; in [11] it was > 394 µM; in [12], > 625 µM. Besides, in assay [13], the TGI was > 463 µM.
Take `CC(=O)[C@@H]1CCC=C2CC[C@]3(C)[C@@H](CC[C@@H]4[C@@]5(C)CCCNC(C)(C)[C@@H]5CC[C@]43C)[C@H]21`: the GI50 in [3] is 1810 nM; in assay [4], 2030 nM; in assay [5] it was 2020 nM; in assay [6], 1370 nM; in [8] it was 1520 nM; in [11], 1200 nM. The GI50 in assay [13] was 1790 nM. Moreover, the TGI in assay [3] stood at 3.37 µM; in assay [4], 3.79 µM; in assay [5] it was 3.73 µM; in [6] it was 2.77 µM; in assay [8], 2.89 µM; in assay [11], 2.58 µM. The molecule also gave a TGI in [13] of 3.31 µM.
For the molecule `Cc1c2c(cc3c1[nH]c1ccccc13)C=NCC2`, the TGI stood at 82.4 µM in assay [1]; 34.5 µM in assay [2]; 97.2 µM in assay [3]; 40.3 µM in assay [4]; 61.6 µM in assay [5]; 16.4 µM in [6]. Also, the TGI in [7] is 24.8 µM; in assay [8], 59.9 µM; in [9] it was 45.8 µM; in [10] it was 11.8 µM; in assay [11], 31.7 µM; in assay [12] it was 12.6 µM. Moreover, in [13], the TGI was found to be 62.6 µM.
Regarding `O=C(CC/C=C(/CS(=O)(=O)c1ccccc1)S(=O)(=O)c1ccccc1)c1ccccc1`, the TGI in assay [1], in assay [2], in [3], in assay [4], in [5] and in [6] was > 100 µM each time. For the same molecule, the TGI in assay [7], in [8], in assay [9], in assay [10], in [11] and in [12] was > 100 µM throughout. Also, the TGI in [13] was > 100 µM.
In the case of `CC(=O)NCCC1CN(C(=O)/C=C\C#C[Si](C)(C)C)c2ccccc21` (stereo not given), the TGI in [1] is 28.4 µM; in [3] it was > 100 µM; in assay [4], > 100 µM; in [5], > 100 µM; in [6], > 100 µM; in assay [7] it was > 100 µM. Besides, the TGI in assay [8] was > 100 µM; in assay [9] it was 93.7 µM; in assay [10], 84.1 µM; in [11] it was 58.9 µM; in assay [13] it was > 100 µM.
As for `CCCCCCCCCCCCCCCCSCC(COC)COP(=O)([O-])OCC[N+](C)(C)C` (stereo not given), the TGI in assay [1] was determined as 28.2 µM; in assay [3] it was 28.6 µM; in assay [4] it was 19.1 µM; in assay [5] it was 20.5 µM; in [6] it was 5.18 µM; in assay [7], 6.05 µM. The TGI in assay [8] is 20.3 µM; in [9], 9.6 µM; in [10], 17 µM; in assay [11] it was 12.8 µM; in [12], 19.8 µM; in assay [13], 11.3 µM.
Take `CC(=O)OCC1OC(n2cc(F)c(=O)[nH]c2=O)C(N)C(OC(C)=O)C1OC(C)=O` (stereo not given): the TGI in assay [1], in assay [2], in assay [3], in [4], in assay [5] and in [6] was > 100 µM each time. The TGI in assay [7], in assay [8], in assay [9], in assay [10], in [11] and in assay [12] was > 100 µM each time. Further, the TGI in assay [13] is > 100 µM.
Turning to `Nc1nc2c(c(=O)[nH]1)N(C=O)C(CNc1ccc(C(=O)N[C@@H](CCC(=O)O)C(=O)O)cc1)CN2` (stereo not given in full), the TGI in assay [1], in assay [2], in assay [3], in assay [5], in assay [6] and in assay [7] was > 125 µM in each case. Moreover, the TGI in assay [8], in assay [9], in assay [10], in [11] and in assay [13] was > 125 µM in each case.
Turning to `O=C1CC(=O)c2c(O)cc(O)c(c2O)-c2c(ccc(O)c2O)C2=CC(=O)c3c(O)cc(O)c(c3O2)-c2c1ccc(O)c2O` (tested in a mixture with another compound), the TGI in [1], in assay [3], in assay [4], in assay [5], in [6] and in assay [7] was > 50 µM throughout. In addition, the TGI in [8], in assay [9], in assay [10], in [11] and in [13] was > 50 µM throughout.
Regarding `CCOC(=O)c1sc2nc(SC)nc3c2c1NC(=O)CN3c1cccc(F)c1`, the TGI in [1] was > 100 µM; in assay [3], 37.4 µM; in assay [4] it was 43.1 µM; in assay [5], 28 µM; in assay [6] it was 55.6 µM; in assay [7], 67.7 µM. Moreover, the TGI was 35.1 µM in assay [8]; 47.9 µM in [9]; 43.9 µM in assay [10]; > 100 µM in [11]; 35.5 µM in [13].
With `O=C(NCCCCCCNC(=O)n1cc(F)c(=O)[nH]c1=O)NCCCOCCOCCCNC(=O)C(O)C(O)C(O)C(O)CO` (stereo not given), the TGI in [1], in [2], in assay [3], in assay [4], in [5] and in assay [6] was > 2.5 µM throughout. For the same molecule, the TGI in assay [7], in assay [8], in [9], in [10], in assay [11] and in [12] was > 2.5 µM in each case. In addition, in assay [13], the TGI is > 2.5 µM.
